The record followed here is patent US20210269434A1, “TRICYCLIC COMPOUNDS AS INHIBITORS OF KRAS” (Incyte Corporation, priority 2020, published 2021).

One test has as its target KRAS G12C (Homo sapiens, UniProt P01116, G12C). Briefly: GDP-GTP exchange assay (KRAS_G12C exchange). The class given is biochemical. The following applies: bodipy-GDP loaded KRAS G12C 2.5 nM, SOS1 150 nM, GppNHp; 2 hours pre-incubation, 2 hours reaction; read-out: G12C_exchange. The essentials:
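Fluorescence exchange of bodipy-GDP for GppNHp, SOS1-driven, read at 485/520 nm; IC50 from four-parameter variable-slope fit. Both mutants used 2.5 nM final labelled protein and a 2 h compound pre-incubation. G12C reaction had 500 uM GppNHp and 150 nM SOS1 for 2 h; G12D ran 4 h.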

For test [1], the system named is MIA PaCa-2 (KRAS G12C) cells. Briefly: Cellular pERK HTRF assay (KRAS_G12C pERK). The following applies: Homo sapiens, MIA PaCa-2, 4 hours incubation, read-out: G12C_pERK. The format is cell-based, human. The essentials: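 MIA PaCa-2 cells plated overnight, then exposed to compound for 4 h at 37 °C (G12C compounds). Phospho-ERK1/2 measured in lysates by HTRF (665/620 nm) after overnight antibody incubation; IC50 from percent inhibition versus log concentration.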
(In TR-FRET formats the signal depends on donor and acceptor labels being close together.)

Sequence of KRAS G12C (P01116 1-188 isoform P01116-2 G12C): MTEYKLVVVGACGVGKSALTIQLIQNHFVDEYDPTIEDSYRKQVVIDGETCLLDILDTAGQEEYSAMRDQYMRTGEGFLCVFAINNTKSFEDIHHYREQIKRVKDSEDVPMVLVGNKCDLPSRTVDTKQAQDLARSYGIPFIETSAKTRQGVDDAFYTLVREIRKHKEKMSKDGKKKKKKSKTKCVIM

With `CC#CC(=O)N1CC[C@H](n2cnc3c(OC[C@@H]4CCCN4C)nc4c(F)c(-c5c(C)c(Cl)cc6[nH]ncc56)c(Cl)cc4c32)C[C@H]1CC#N` [Example 180, 2-((2S,4S)-1-(but-2-ynoyl)-4-(8-chloro-7-(6-chloro-5-methyl-1H-indazol-4-yl)-6-fluoro-4-(((S)-1-methylpyrrolidin-2-yl)methoxy)-1H-imidazo[4,5-c]quinolin-1-yl)piperidin-2-yl)acetonitrile], the IC50 (at KRAS G12C; in test [1]) was no more than 100 nM throughout.

On to `C=CC(=O)N1C[C@H](n2cnc3c(N4CC(N(C)C)C4)nc4c(F)c(-c5cccc6ccccc56)c(Cl)cc4c32)C[C@@H]1CC#N` [Example 63, 2-((2R,4R)-1-acryloyl-4-(8-chloro-4-(3-(dimethylamino)azetidin-1-yl)-6-fluoro-7-(naphthalen-1-yl)-1H-imidazo[4,5-c]quinolin-1-yl)pyrrolidin-2-yl)acetonitrile], for which the IC50 (at KRAS G12C; in test [1]) was no more than 100 nM in each case.

On to `C=CC(=O)N1CC[C@H](n2cnc3c(N4CC(N(C)C)C4)nc4c(F)c(-c5ccnc6ccccc56)c(Cl)cc4c32)C[C@H]1CC#N` (single isomer, unassigned) [Example 74a], for which the IC50 (at KRAS G12C; in test [1]) was no more than 100 nM in each case.

On to `CC#CC(=O)N1CCC(n2cnc3c(N4CC(N(C)CC)C4)nc4c(F)c(-c5cccc6cccc(Cl)c56)c(C)cc4c32)C[C@H]1CC#N` (single isomer, unassigned) [Example 224a], for which the IC50 (at KRAS G12C; in test [1]) was no more than 100 nM in each case.

As for `C=CC(=O)N1CC[C@H](n2nnc3c(OC[C@@H]4CCCN4C)nc4c(F)c(-c5cccc(C#N)c5C)c(Cl)cc4c32)C[C@H]1CC#N` [Example 95, 3-(1-((2S,4S)-1-acryloyl-2-(cyanomethyl)piperidin-4-yl)-8-chloro-6-fluoro-4-(((S)-1-methylpyrrolidin-2-yl)methoxy)-1H-[1,2,3]triazolo[4,5-c]quinolin-7-yl)-2-methylbenzonitrile], the IC50 (on KRAS G12C; in test [1]) was no more than 100 nM in each case.

As to `C=CC(=O)N1CCC(n2cnc3c(OC[C@@H]4CCCN4C)nc4c(F)c(-c5cccc(Cl)c5C)c(Cl)cc4c32)CC1CC#N` (mixture of isomers) [Example 41, 2-(1-acryloyl-4-(8-chloro-7-(3-chloro-2-methylphenyl)-6-fluoro-4-(((S)-1-methylpyrrolidin-2-yl)methoxy)-1H-imidazo[4,5-c]quinolin-1-yl)piperidin-2-yl)acetonitrile], the IC50 (on KRAS G12C; in test [1]) was no more than 100 nM throughout.

Take `C=CC(=O)N1CCC(n2cnc3c(N4CC(C)(N(C)C)C4)nc4c(F)c(-c5cccc6cccc(Cl)c56)c(C)cc4c32)C[C@H]1CC#N` (single isomer, unassigned) [Example 221a]: the IC50 (on KRAS G12C; in test [1]) was no more than 100 nM in each case.

`Cc1c(Cl)cccc1-c1c(C(F)(F)F)cc2c(nc(N3CC(C)(N(C)C)C3)c3nnn([C@H]4CCN(C(=O)/C=C/CN(C)C)[C@H](CC#N)C4)c32)c1F` [Example 240, 2-((2S,4S)-4-(7-(3-chloro-2-methylphenyl)-4-(3-(dimethylamino)-3-methylazetidin-1-yl)-6-fluoro-8-(trifluoromethyl)-1H-[1,2,3]triazolo[4,5-c]quinolin-1-yl)-1-((E)-4-(dimethylamino)but-2-enoyl)piperidin-2-yl)acetonitrile]: the IC50 (on KRAS G12C; in test [1]) was no more than 100 nM each time.

In the case of `Cc1c(Cl)cc2[nH]ncc2c1-c1c(Cl)cc2c(nc(N3CC(N(C)C)C3)c3ncn([C@H]4CCN(C(=O)/C=C/CN(C)C)[C@H](CC#N)C4)c32)c1F` [Example 176, 2-((2S,4S)-4-(8-chloro-7-(6-chloro-5-methyl-1H-indazol-4-yl)-4-(3-(dimethylamino)-azetidin-1-yl)-6-fluoro-1H-imidazo[4,5-c]quinolin-1-yl)-1-((E)-4-(dimethylamino)but-2-enoyl)piperidin-2-yl)acetonitrile], the IC50 (on KRAS G12C; in test [1]) was no more than 100 nM in each case.

Turning to `C=CC(=O)N1CCC(n2nnc3c(N4CC(C)(N(C)C)C4)nc4c(F)c(-c5cccc6cccc(C#N)c56)c(Cl)cc4c32)C[C@H]1CC#N` (single isomer, unassigned) [Example 220a], the IC50 (at KRAS G12C; in test [1]) was no more than 100 nM in each case.

As for `C=CC(=O)N1CC[C@H](n2cnc3c(O[C@@H](C)CN(C)C)nc4c(F)c(-c5ccc(F)cc5)c(Cl)cc4c32)C[C@H]1CC#N` [Example 122, 2-((2S,4S)-1-acryloyl-4-(8-chloro-4-(((S)-1-(dimethyl-amino)propan-2-yl)oxy)-6-fluoro-7-(4-fluorophenyl)-1H-imidazo[4,5-c]quinolin-1-yl)piperidin-2-yl)acetonitrile], the IC50 (at KRAS G12C; in test [1]) was no more than 100 nM throughout.

Turning to `C=CC(=O)N1CC[C@H](n2nnc3c(N4CC(C)(N(C)C)C4)nc4c(F)c(-c5cccc(Cl)c5C)c(C(F)(F)F)cc4c32)C[C@H]1CC#N` (single isomer, unassigned) [Example 238a], the IC50 (at KRAS G12C; in test [1]) was no more than 100 nM throughout.

`CC#CC(=O)N1CC[C@H](n2nnc3c(OC[C@@H]4CCCN4C)nc4c(Cl)c(-c5cc(F)cc6cccnc56)c(Cl)cc4c32)C[C@H]1CC#N` (single isomer, unassigned) [Example 280a]: the IC50 (at KRAS G12C; in test [1]) was no more than 100 nM throughout.

Consider `CC#CC(=O)N1CC[C@H](n2nnc3c(N4CC(C)(N(C)C)C4)nc4c(F)c(-c5cccc(C)c5OC)c(C(F)(F)F)cc4c32)C[C@H]1CC#N` (single isomer, unassigned) [Example 245a], for which the IC50 (on KRAS G12C; in test [1]) was no more than 100 nM each time.

For `C=CC(=O)N1CC[C@H](n2cnc3c(N4CC(N(C)C)C4)nc4c(F)c(-c5cc(O)cc6ccccc56)c(Cl)cc4c32)C[C@H]1C(N)=O` [Example 21, (2S,4S)-1-acryloyl-4-(8-chloro-4-(3-(dimethylamino)azetidin-1-yl)-6-fluoro-7-(3-hydroxynaphthalen-1-yl)-1H-imidazo[4,5-c]quinolin-1-yl)piperidine-2-carboxamide], the IC50 (at KRAS G12C; in test [1]) was no more than 100 nM in each case.

Consider `C=CC(=O)N1CC[C@H](n2nnc3c(OC[C@@H]4CCCN4C)nc4c(F)c(-c5cccc(Cl)c5C)c(C)cc4c32)C[C@H]1CC#N` [Example 98, 2-((2S,4S)-1-acryloyl-4-(7-(3-chloro-2-methylphenyl)-6-fluoro-8-methyl-4-(((S)-1-methylpyrrolidin-2-yl)methoxy)-1H-[1,2,3]triazolo[4,5-c]quinolin-1-yl)piperidin-2-yl)acetonitrile], for which the IC50 (at KRAS G12C; in test [1]) was no more than 100 nM throughout.

For the molecule `C=CC(=O)N1CC[C@H](n2cnc3c(-c4cccnc4C)nc4c(F)c(-c5cccc(Cl)c5C)c(Cl)cc4c32)C[C@H]1CC#N` [Example 173, 2-((2S,4S)-1-acryloyl-4-(8-chloro-7-(3-chloro-2-methylphenyl)-6-fluoro-4-(2-methylpyridin-3-yl)-1H-imidazo[4,5-c]quinolin-1-yl)piperidin-2-yl)acetonitrile], the IC50 (on KRAS G12C; in test [1]) was no more than 100 nM throughout.
